Measurements reported in paper PMC10821229, “Synthesis and Antiviral Activity of Novel β-D-N4-Hydroxycytidine Ester Prodrugs as Potential Compounds for the Treatment of SARS-CoV-2 and Other Human Coronaviruses” (Pharmaceuticals, 2023).
pIC50: −log10 of the molar value.

Key:
SARS-CoV-2 BQ.1.1.45 = experiment: Inhibition of virus-induced cytopathic effect (MTT), SARS-CoV-2 BQ.1.1.45; assay type: cell-based; settings: Severe acute respiratory syndrome coronavirus 2
SARS-CoV-2 XBB.1.16 = experiment: Inhibition of virus-induced cytopathic effect (MTT), SARS-CoV-2 XBB.1.16; assay type: cell-based; settings: Severe acute respiratory syndrome coronavirus 2
SARS-CoV-2 EG.5.1.1 = experiment: Inhibition of virus-induced cytopathic effect (MTT), SARS-CoV-2 EG.5.1.1; assay type: cell-based; settings: Severe acute respiratory syndrome coronavirus 2
HCoV-229E = experiment: Inhibition of virus-induced cytopathic effect (MTT), HCoV-229E; assay type: cell-based; settings: Human coronavirus 229E, CPE inhibition, 100 TCID50, 72–96 h
[1] = Cytotoxicity (CC50) in Vero E6 and huh-7 cells; assay type: cell-based; settings: African green monkey (Vero E6) and human (huh-7), Vero E6 cells and huh-7 cells
HIV = settings: compared with emtricitabine (FTC); cited from earlier work

Structure (SMILES)	pIC50 (SARS-CoV-2 BQ.1.1.45)	pIC50 (SARS-CoV-2 XBB.1.16)	pIC50 (SARS-CoV-2 EG.5.1.1)	pIC50 (HCoV-229E)	CC50 [1] [µM]	times higher anti-HIV activity than the parent drug (HIV)
COc1cccc(CC(=O)OC[C@H]2O[C@@H](n3ccc(NO)nc3=O)[C@H](O)[C@@H]2O)c1 [SN_15, 5′-O-(3-Methoxyphenyl)acetyl-N4-hydroxycytidine]	6.13	5.68	6.28	4.96	≥ 50	–
CC(C)C(=O)OC[C@H]1O[C@@H](n2ccc(NO)nc2=O)[C@H](O)[C@@H]1O [EIDD-2801, Molnupiravir, reference compound]	6.51	5.82	6.28	5.46	≥ 50	–
O=C(Cc1ccc(F)cc1)OC[C@H]1O[C@@H](n2ccc(NO)nc2=O)[C@H](O)[C@@H]1O [SN_18, 5′-O-(4-Fluorophenyl)acetyl-N4-hydroxycytidine]	5.92	5.56	5.75	4.68	≥ 50	–
COc1cccc(CCC(=O)OC[C@H]2O[C@@H](n3ccc(NO)nc3=O)[C@H](O)[C@@H]2O)c1 [SN_23, 5′-O-3-(3-Methoxyphenyl)propanoyl-N4-hydroxycytidine]	6.59	5.99	6.52	5.77	≥ 50	–
Cc1cccc(OCC(=O)OC[C@H]2O[C@@H](n3ccc(NO)nc3=O)[C@H](O)[C@@H]2O)c1 [SN_22, 5′-O-(3-Methylphenoxy)acetyl-N4-hydroxycytidine]	6.68	6.60	6.70	5.79	≥ 50	–
O=C(COc1ccccc1)OC[C@H]1O[C@@H](n2ccc(NO)nc2=O)[C@H](O)[C@@H]1O [SN_21, 5′-O-Phenoxyacetyl-N4-hydroxycytidine]	6.07	5.89	6.08	5.29	≥ 50	–
O=C(Cc1ccccc1Cl)OC[C@H]1O[C@@H](n2ccc(NO)nc2=O)[C@H](O)[C@@H]1O [SN_19, 5′-O-(2-Chlorophenyl)acetyl-N4-hydroxycytidine]	5.63	5.24	5.67	4.62	≥ 50	–
O=C(OC[C@H]1O[C@@H](n2ccc(NO)nc2=O)[C@H](O)[C@@H]1O)C1(c2ccccc2)CC1 [SN_20, 5′-O-(1-Phenylcyclopropanoyl-1-carbonyl)-N4-hydroxycytidine]	≤ 4.30	< 4.00	< 4.00	< 4.00	≥ 50	–
Cc1ccc(CC(=O)OC[C@H]2O[C@@H](n3ccc(NO)nc3=O)[C@H](O)[C@@H]2O)cc1 [SN_14, 5′-O-(4-Methylphenyl)acetyl-N4-hydroxycytidine]	6.15	5.67	5.96	4.98	≥ 50	–
COc1ccc(CC(=O)OC[C@H]2O[C@@H](n3ccc(NO)nc3=O)[C@H](O)[C@@H]2O)cc1 [SN_16, 5′-O-(4-Methoxyphenyl)acetyl-N4-hydroxycytidine]	6.15	5.69	6.25	5.14	≥ 50	–
O=C(Cc1ccccc1F)OC[C@H]1O[C@@H](n2ccc(NO)nc2=O)[C@H](O)[C@@H]1O [SN_17, 5′-O-(2-Fluorophenyl)acetyl-N4-hydroxycytidine]	6.19	5.77	6.01	5.10	≥ 50	–
CCCCCCCCCCCCCC(=O)OC[C@@H]1O[C@H](n2cc(F)c(N)nc2=O)CS1	–	–	–	–	–	10–24 times
